Test system: XBP1s-luc 293 LUC
Test: cellular PD assay, XBP1s-LUC reporter (Example 903)
Assay type: cell-based
Conditions: Table 1; read-out: XBP1s-luc 293 LUC (IC50)
Outline: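 A luciferase fusion, in frame and expressed only when the XBP1 transcript is spliced, served as the readout of cellular IRE1α activity in an XBP1-Luc reporter line.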

Row | Compound | IC50 [µM]
1 | Cc1cc(S(=O)(=O)Nc2cccc3c(Oc4ncccc4-c4ccnc(N[C@H]5CCCNC5)n4)c(C)ccc23)sn1 [Example 168, (S)-3-Methyl-N-(6-methyl-5-((3-(2-(piperidin-3-ylamino)pyrimidin-4-yl)pyridin-2-yl)oxy)naphthalen-1-yl)isothiazole-5-sulfonamide] | 0.172
2 | Cc1ccc2c(NS(=O)(=O)Cc3ccccc3CF)cccc2c1Oc1ncccc1-c1ccnc(N[C@H]2CCCNC2)n1 [Example 170, (S)-1-(2-(Fluoromethyl)phenyl)-N-(6-methyl-5-((3-(2-(piperidin-3-ylamino)pyrimidin-4-yl)pyridin-2-yl)oxy)naphthalen-1-yl)methanesulfonamide] | 0.015
3 | Cc1cccc(S(=O)(=O)Nc2cccc3c(Oc4ncccc4-c4ccnc(N[C@H]5CCCNC5)n4)c(C)ccc23)n1 [Example 171, (S)-6-Methyl-N-(6-methyl-5-((3-(2-(piperidin-3-ylamino)pyrimidin-4-yl)pyridin-2-yl)oxy)naphthalen-1-yl)pyridine-2-sulfonamide] | 0.309
4 | Cc1ccc2c(NS(=O)(=O)CBr)cccc2c1Oc1ncccc1-c1ccnc(N[C@H]2CCCNC2)n1 [Example 172, (S)-1-Bromo-N-(6-methyl-5-(3-(2-(piperidin-3-ylamino)pyrimidin-4-yl)pyridin-2-yloxy)naphthalen-1-yl)methanesulfonamide] | 0.393
5 | CCC(=O)Nc1cccc2c(Oc3ncccc3-c3ccnc(N[C@H]4CCCNC4)n3)c(C)ccc12 [Example 173, (S)—N-(6-Methyl-5-((3-(2-(piperidin-3-ylamino)pyrimidin-4-yl)pyridin-2-yl)oxy)naphthalen-1-yl)propionamide] | 0.226
6 | Cc1ccc2c(NC(=O)c3ccc4ccccc4c3)cccc2c1Oc1ncccc1-c1ccnc(N[C@H]2CCCNC2)n1 [Example 174, (S)—N-(6-Methyl-5-((3-(2-(piperidin-3-ylamino)pyrimidin-4-yl)pyridin-2-yl)oxy)naphthalen-1-yl)-2-naphthamide] | 0.278
7 | Cc1ccc2c(NC(=O)c3ccccn3)cccc2c1Oc1ncccc1-c1ccnc(N[C@H]2CCCNC2)n1 [Example 175, (S)—N-(6-Methyl-5-((3-(2-(piperidin-3-ylamino)pyrimidin-4-yl)pyridin-2-yl)oxy)naphthalen-1-yl)picolinamide] | 0.333
8 | Cc1ccc2c(NC(=O)c3cn(C)cn3)cccc2c1Oc1ncccc1-c1ccnc(N[C@H]2CCCNC2)n1 [Example 176, (S)-1-Methyl-N-(6-methyl-5-((3-(2-(piperidin-3-ylamino)pyrimidin-4-yl)pyridin-2-yl)oxy)naphthalen-1-yl)-1H-imidazole-4-carboxamide] | 0.368
9 | Cc1ccc2c(NC(=O)Cc3ccccc3F)cccc2c1Oc1ncccc1-c1ccnc(N[C@H]2CCCNC2)n1 [Example 177, (S)-2-(2-Fluorophenyl)-N-(6-methyl-5-((3-(2-(piperidin-3-ylamino)pyrimidin-4-yl)pyridin-2-yl)oxy)naphthalen-1-yl)acetamide] | 0.108
10 | Cc1ccc2c(NC(=O)CCC(F)(F)F)cccc2c1Oc1ncccc1-c1ccnc(N[C@H]2CCCNC2)n1 [Example 178, (S)-4,4,4-Trifluoro-N-(6-methyl-5-((3-(2-(piperidin-3-ylamino)pyrimidin-4-yl)pyridin-2-yl)oxy)naphthalen-1-yl)butanamide] | 0.125
11 | CCCS(=O)(=O)Nc1cccc2c(Oc3ncccc3-c3ccnc(N[C@H]4CCCNC4)n3)c(Cl)ccc12 [Example 181] | 0.185
12 | CCC(C)C(=O)Nc1cccc2c(Oc3ncccc3-c3ccnc(N[C@H]4CCCNC4)n3)c(C)ccc12 (stereo partly drawn) [Example 182, 2-Methyl-N-(6-methyl-5-((3-(2-(((S)-piperidin-3-yl)amino)pyrimi-din-4-yl)pyridin-2-yl)oxy)naphthalen-1-yl)butanamide] | 0.154
13 | Cc1ccc2c(NC(=O)CC#N)cccc2c1Oc1ncccc1-c1ccnc(N[C@H]2CCCNC2)n1 [Example 183, (S)-2-Cyano-N-(6-methyl-5-((3-(2-(piperidin-3-ylamino)pyrimidin-4-yl)pyridin-2-yl)oxy)naphthalen-1-yl)acetamide] | 0.26
14 | Cc1ccc2c(NC(=O)Cc3ccccc3)cccc2c1Oc1ncccc1-c1ccnc(N[C@H]2CCCNC2)n1 [Example 184, N-[6-Methyl-5-[[3-[2-[[(3S)-3-piperidyl]amino]pyrimidin-4-yl]-2-pyridyl]oxy]-1-naphthyl]-2-phenyl-acetamide] | 0.1
15 | COCCS(=O)(=O)Nc1c(F)ccc2c(Oc3ncccc3-c3ccnc(N[C@H]4CCCNC4)n3)c(C)ccc12 [Example 185, (S)—N-(2-Fluoro-6-methyl-5-((3-(2-(piperidin-3-ylamino)pyrimidin-4-yl)pyridin-2-yl)oxy)naphthalen-1-yl)-2-methoxyethanesulfonamide] | 0.0735
16 | Cc1ccc2c(NS(=O)(=O)Cc3ccc(F)cc3F)c(F)ccc2c1Oc1ncccc1-c1ccnc(N[C@H]2CCCNC2)n1 [Example 186, (S)-1-(2,4-Difluorophenyl)-N-(2-fluoro-6-methyl-5-((3-(2-(piperidin-3-ylamino)pyrimidin-4-yl)pyridin-2-yl)oxy)naphthalen-1-yl)methanesulfonamide] | 0.00489
17 | Cc1ccc2c(NC(=O)C3CCCC3)cccc2c1Oc1ncccc1-c1ccnc(N[C@H]2CCCNC2)n1 [Example 187, (S)—N-(6-Methyl-5-((3-(2-(piperidin-3-ylamino)pyrimidin-4-yl)pyridin-2-yl)oxy)naphthalen-1-yl)cyclopentanecarboxamide] | 0.157
18 | Cc1ccc2c(NC(=O)CC(C)C)cccc2c1Oc1ncccc1-c1ccnc(N[C@H]2CCCNC2)n1 [Example 188, (S)-3-Methyl-N-(6-methyl-5-((3-(2-(piperidin-3-ylamino)pyrimidin-4-yl)pyridin-2-yl)oxy)naphthalen-1-yl)butanamide] | 0.141
19 | Cc1ccc2c(NS(=O)(=O)Cc3cccc(F)c3F)c(F)ccc2c1Oc1ncccc1-c1ccnc(N[C@H]2CCCNC2)n1 [Example 189, (S)-1-(2,3-Difluorophenyl)-N-(2-fluoro-6-methyl-5-((3-(2-(piperidin-3-ylamino)pyrimidin-4-yl)pyridin-2-yl)oxy)naphthalen-1-yl)methanesulfonamide] | 0.00507
20 | Cc1ccc2c(NC(=O)C3CCCCC3)cccc2c1Oc1ncccc1-c1ccnc(N[C@H]2CCCNC2)n1 [Example 190, (S)—N-(6-Methyl-5-((3-(2-(piperidin-3-ylamino)pyrimidin-4-yl)pyridin-2-yl)oxy)naphthalen-1-yl)cyclohexanecarboxamide] | 0.273
21 | Cc1ccc2c(NC(=O)CC3CC3)cccc2c1Oc1ncccc1-c1ccnc(N[C@H]2CCCNC2)n1 [Example 191, (S)-2-Cyclopropyl-N-(6-methyl-5-((3-(2-(piperidin-3-ylamino)pyrimidin-4-yl)pyridin-2-yl)oxy)naphthalen-1-yl)acetamide] | 0.234
22 | Cc1nc(Nc2cccc3c(Oc4ncccc4-c4ccnc(N[C@H]5CCCNC5)n4)c(C)ccc23)cs1 [Example 192, (S)-2-Methyl-N-(6-methyl-5-((3-(2-(piperidin-3-ylamino)pyrimidin-4-yl)pyridin-2-yl)oxy)naphthalen-1-yl)thiazol-4-amine] | 0.444
23 | Cc1ccc2c(NC(=O)Cc3cccc(F)c3)cccc2c1Oc1ncccc1-c1ccnc(N[C@H]2CCCNC2)n1 [Example 193, (S)-2-(3-Fluorophenyl)-N-(6-methyl-5-((3-(2-(piperidin-3-ylamino)pyrimidin-4-yl)pyridin-2-yl)oxy)naphthalen-1-yl)acetamide] | 0.086

From patent publication US10968203B2, “Pyrimidinyl-pyridyloxy-naphthyl compounds and methods of treating IRE1-related diseases and disorders” (Genentech, Inc., priority 2017, dated 2021)
